From patent US12077503B2, “Substituted cyclic amides and their use as herbicides” (FMC CORPORATION, priority 2015, dated 2024)

Key:
Test in all cases: Test C preemergence
Format in all cases: in vivo
Conditions in all cases: scale 0 to 100, 0 no effect, 100 complete control
[1] = system: barnyardgrass (Echinochloa crus-galli)
Method in brief: (§1)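 Visual 0 (no effect) to 100 (complete control) ratings versus controls, taken 13–15 d after treatment in the greenhouse; dash means no result. Compounds in a surfactant-containing non-phytotoxic solvent blend were applied preemergence to seeds in loam-sand soil or postemergence to 1- to 4-leaf plants (2–18 cm) in peat-based medium.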

[2] = system: blackgrass (Alopecurus myosuroides)
Method in brief: as §1

[3] = system: corn (Zea mays)
Method in brief: as §1

[4] = system: crabgrass, large (large crabgrass, Digitaria sanguinalis)
Method in brief: as §1

[5] = system: foxtail, giant (giant foxtail, Setaria faberii)
Method in brief: as §1

[6] = system: johnsongrass (Sorghum halepense)
Method in brief: as §1

[7] = system: lambsquarters (Chenopodium album)
Method in brief: as §1

[8] = system: morningglory (Ipomoea coccinea)
Method in brief: as §1

[9] = system: nutsedge, yellow (yellow nutsedge, Cyperus esculentus)
Method in brief: as §1

[10] = system: oilseed rape (Brassica napus)
Method in brief: as §1

[11] = system: ragweed (common ragweed, Ambrosia elatior)
Method in brief: as §1

[12] = system: ryegrass, Italian (Italian ryegrass, Lolium multiflorum)
Method in brief: as §1

[13] = system: soybean (Glycine max)
Method in brief: as §1

[14] = system: velvetleaf (Abutilon theophrasti)
Method in brief: as §1

[15] = system: waterhemp (common waterhemp, Amaranthus rudis)
Method in brief: as §1

[16] = system: wheat (winter wheat, Triticum aestivum)
Method in brief: as §1

Compound: CN1CC(c2cccc(OC(F)(F)C(F)F)c2)C(C(=O)Nc2ccc(F)cc2F)C1=O (centres unmarked) [Compound 393]
- Plant response rating, Barnyardgrass ([1]; 31 g ai/ha): 90
- Plant response rating, Barnyardgrass ([1]; 62 g ai/ha): 90
- Plant response rating, Barnyardgrass ([1]; 125 g ai/ha): 95
- Plant response rating, Barnyardgrass ([1]; 250 g ai/ha): 95
- Plant response rating, Blackgrass ([2]; 31 g ai/ha): 10
- Plant response rating, Blackgrass ([2]; 62 g ai/ha): 55
- Plant response rating, Blackgrass ([2]; 125 g ai/ha): 70
- Plant response rating, Blackgrass ([2]; 250 g ai/ha): 90
- Plant response rating, Corn ([3]; 31 g ai/ha): 0
- Plant response rating, Corn ([3]; 62 g ai/ha): 40
- Plant response rating, Corn ([3]; 125 g ai/ha): 55
- Plant response rating, Corn ([3]; 250 g ai/ha): 70
- Plant response rating, Crabgrass, Large ([4]; 31 g ai/ha): 95
- Plant response rating, Crabgrass, Large ([4]; 62 g ai/ha): 95
- Plant response rating, Crabgrass, Large ([4]; 125 g ai/ha): 95
- Plant response rating, Crabgrass, Large ([4]; 250 g ai/ha): 98
- Plant response rating, Foxtail, Giant ([5]; 31 g ai/ha): 90
- Plant response rating, Foxtail, Giant ([5]; 62 g ai/ha): 95
- Plant response rating, Foxtail, Giant ([5]; 125 g ai/ha): 95
- Plant response rating, Foxtail, Giant ([5]; 250 g ai/ha): 95
- Plant response rating, Johnsongrass ([6]; 31 g ai/ha): 70
- Plant response rating, Johnsongrass ([6]; 62 g ai/ha): 80
- Plant response rating, Johnsongrass ([6]; 125 g ai/ha): 85
- Plant response rating, Johnsongrass ([6]; 250 g ai/ha): 85
- Plant response rating, Lambsquarters ([7]; 31 g ai/ha): 55
- Plant response rating, Lambsquarters ([7]; 62 g ai/ha): 75
- Plant response rating, Lambsquarters ([7]; 125 g ai/ha): 75
- Plant response rating, Lambsquarters ([7]; 250 g ai/ha): 85
- Plant response rating, Morningglory ([8]; 31 g ai/ha): 0
- Plant response rating, Morningglory ([8]; 62 g ai/ha): 10
- Plant response rating, Morningglory ([8]; 125 g ai/ha): 10
- Plant response rating, Morningglory ([8]; 250 g ai/ha): 10
- Plant response rating, Nutsedge, Yellow ([9]; 31 g ai/ha): 0
- Plant response rating, Nutsedge, Yellow ([9]; 62 g ai/ha): 0
- Plant response rating, Nutsedge, Yellow ([9]; 125 g ai/ha): 0
- Plant response rating, Nutsedge, Yellow ([9]; 250 g ai/ha): 0
- Plant response rating, Oilseed Rape ([10]; 31 g ai/ha): 0
- Plant response rating, Oilseed Rape ([10]; 62 g ai/ha): 40
- Plant response rating, Oilseed Rape ([10]; 125 g ai/ha): 80
- Plant response rating, Oilseed Rape ([10]; 250 g ai/ha): 85
- Plant response rating, Ragweed ([11]; 31 g ai/ha): 35
- Plant response rating, Ragweed ([11]; 62 g ai/ha): 35
- Plant response rating, Ragweed ([11]; 125 g ai/ha): 40
- Plant response rating, Ragweed ([11]; 250 g ai/ha): 65
- Plant response rating, Ryegrass, Italian ([12]; 62 g ai/ha): 30
- Plant response rating, Ryegrass, Italian ([12]; 125 g ai/ha): 30
- Plant response rating, Ryegrass, Italian ([12]; 250 g ai/ha): 45
- Plant response rating, Soybean ([13]; 62 g ai/ha): 10
- Plant response rating, Soybean ([13]; 125 g ai/ha): 15
- Plant response rating, Soybean ([13]; 250 g ai/ha): 30
- Plant response rating, Velvetleaf ([14]; 62 g ai/ha): 35
- Plant response rating, Velvetleaf ([14]; 125 g ai/ha): 50
- Plant response rating, Velvetleaf ([14]; 250 g ai/ha): 80
- Plant response rating, Waterhemp ([15]; 62 g ai/ha): 80
- Plant response rating, Waterhemp ([15]; 125 g ai/ha): 85
- Plant response rating, Waterhemp ([15]; 250 g ai/ha): 90
- Plant response rating, Wheat ([16]; 62 g ai/ha): 20
- Plant response rating, Wheat ([16]; 125 g ai/ha): 35
- Plant response rating, Wheat ([16]; 250 g ai/ha): 70
